The results in this text go back to patent US20070010438A1, “Tumor treatment using beta-sheet peptides and radiotherapy” (priority 2005, published 2007).

One test concerns EC. Nature of the test: EC proliferation, 3[H]thymidine incorporation assay (Table 3). Type of test: cell-based, human. The method, then:
EC proliferation was measured using a ^3[H]thymidine incorporation assay. EC were seeded in flatbottomed 96-well tissue culture plates (5000 cells/well) and grown for 3 days, in culture medium. In some cultures the proliferation of EC was enhanced by incubation with 10 ng/ml bFGF. During the last 6 hours of the assay, the culture was pulsed with 0.5 μCi [methyl-3 H]thymidine/well. Results are expressed as the arithmetic mean counts per minute (cpm) of triplicate cultures.
For orientation: Uptake of a labelled nucleoside into DNA is a usual measure of proliferation.

Test [1] concerns intercellular adhesion molecule-1 (ICAM-1). Nature of the test: ICAM-1 expression on bFGF-treated EC (flow cytometry, Northern blot). The test is classed as cell-based, human. The note with it: for bFGF mediated downregulation of ICAM-1: 100 μg/ml added simultaneously with 10 ng/ml bFGF, 3 days. The method, then: In a first series of experiments, PF4 and βpep peptides were tested for their ability to prevent bFGF (fibroblast growth factor) mediated downregulation of ICAM-1. […] Simultaneously 100 μg/ml of each PF4, βpep-14, βpep-16, or medium was added. Mean ICAM-1 fluorescence intensity values were determined.
Since the in vivo situation of tumor-associated EC involves the low expression or even absence of ICAM-1, the next set of experiments aimed to study the ability to re-induce ICAM-1 expression after bFBF preincubation. […] In these experiments, HUVEC were pretreated for 3 days with bFGF, subsequently PF4 was added for 3 days and, where indicated in the last 16 hours of culture 4 ng/ml TNF(X was added. Human umbilical vein derived endothelial cells (HUVEC) were harvested from normal human umbilical cords by perfusion with 0.125% trypsin/EDTA. Cells were cultured in fibronectin (FN) coated tissue culture flasks in culture medium (RPMI-1640 with 20% human serum (HS), supplemented with 2 mM glutamine and 100 U/ml penicillin and 0.1 mg/ml streptomycin). Immunofluorescence using indirect PE-conjugated reagents required three separate incubations. 1×10^5 EC were fixed for 1 hour in 1% paraformaldehyde, resuspended in 20 μl appropriately diluted Mab and incubated for 1 hour on ice. Subsequently, cells were washed two times in PBS/BSA (0.1%) and incubated for another 30 minutes with biotinylated rabbit-anti-mouse Ig (Dako, Glostrup, Denmark). After another 2 washings, cells were incubated with streptavidin-phycoerythrin conjugate (Dako). Stained cells were analyzed on a FACScan flowcytometer. Data analysis was performed using PCLysys software (Becton Dickinson, Mountain View, Calif.). Statistical significance of observed differences was determined using the Student's t-test.
The anergy of EC to stimulation with inflammatory cytokines was the subject of additional experiments. For these experiments, HUVEC (human vascular endothelial cells) were pretreated with 10 ng/ml bFGF for 3 days. Subsequently, cells are subcultured for 3 days with […] in the presence of PF4. For the last 16 hours of the culture 4 ng/ml TNF-α was added to induce upregulation of ICAM-1. […] The regulation of ICAM-1 at the protein level was confirmed in Northern blot analysis for detection of ICAM-1 message. In these experiments, HUVEC were cultured for 3 days with bFGF and treated for the last 4 and 24 hours with PF4 (100 μg/ml). TNF-α was added 2 hours before isolation of RNA. RNA from a subconfluent EC cultures (75 cm^2 Petri-dishes) incubated with bFGF for different time-points was isolated using an RNA-zol kit (Campro Scientific, Houston, Tex.). Total RNA (10 μg) for each sample was separated in a 0.8% formaldehyde-denaturing gel, transferred to nitrocellulose (Hybond N+, Amersham International, Amersham, UK) and hybridized to a ^32P-labelled 1.9 Kb c-DNA probe, containing the functional sequence of the human ICAM-1 gene (a gift from Dr. B. Seed). Membranes were washed at a high stringency in 0.2×SSC, 0.1% SDS at 50° C. for 1 hour. Filters were exposed to X-ray films (Kodak X-omat, Eastman Kodak Company, Rochester, N.Y.) using an intensifying screen at −80° C. for not less than 12 hours. Autoradiograms were subjected to scanning using a laser densitometer (Model GS670, Bio-Rad, Hercules, Calif.) and data were analysed with the Molecular Analyst PCTM software. The intensity of the major ICAM-1 mRNA transcript was normalized with respect to actin mRNA expression used as a control.

The test system of test [2] is endothelial cell (FBHEC, HUVEC). As to the method:
β-sheet peptides βpep 1-24 were tested in an endothelial cell proliferation assay using ^3H-thymidine incorporation.

The test system of a further test is HUVEC. The note with it: PF4 100 μg/ml, bFGF 10 ng/ml. As to the method:
Functional impact for the observed phenomena was provided by leukocyte/EC adhesion assays as described earlier (Griffloen et al. Cancer Res. 56, 1111-1117 (1996)). […] PHA-activated peripheral blood T lymphocyte were adhered for 1 hour at 37° C. to TNF-α (4 ng/ml), bFGF (10 ng/ml) and PF4 (100 μg/ml) treated, or control (HUVEC). Non-adhering cells were removed and adhered cells were enumerated by an inverted microscope. Values of one representative experiment out of three are expressed as numbers of adhered cells per high power field. Statistical significance is determined by the Student's t-test.

In a further test the test system is SCK tumors. Nature of the test: Radiosensitization test of SCK tumors, i.p. injections plus 10 Gy on days 0 and 1.
[3] abbreviates: second expt 2, 1 μg/ml, 10 ng/ml bFGF, medium 52808 ± 4092.
[4] abbreviates: second expt 2, 1 μg/ml, no bFGF, medium 6780 ± 713.
The mark [5] stands for this setting: second expt 2, 10 μg/ml, 10 ng/ml bFGF, medium 52808 ± 4092.
The mark [6] stands for this setting: second expt 2, 10 μg/ml, no bFGF, medium 6780 ± 713.
Setting [7] is: second expt 2, 100 μg/ml, 10 ng/ml bFGF, medium 52808 ± 4092.
The mark [8] stands for this setting: second expt 2, 100 μg/ml, no bFGF, medium 6780 ± 713.
The mark [9] stands for this setting: first expt 2, 1 μg/ml, 10 ng/ml bFGF, medium 29079 ± 2506.
Where [10] appears, read: first expt 2, 1 μg/ml, no bFGF, medium 14296 ± 2490.
Where [11] appears, read: first expt 2, 10 μg/ml, 10 ng/ml bFGF, medium 29079 ± 2506.
Setting [12] is: first expt 2, 10 μg/ml, no bFGF, medium 14296 ± 2490.
[13] abbreviates: first expt 2, 100 μg/ml, 10 ng/ml bFGF, medium 29079 ± 2506.
Setting [14] is: first expt 2, 100 μg/ml, no bFGF, medium 14296 ± 2490.

Procedure for SCK tumors: On days 0 and 1 the injections were given 2 hours prior to tumor irradiation (10 Gy each day) (Mauceri et al., Nature 394, 287-91 (1998)).
Tumor volume was determined by measuring the diameters of the tumor using metric-scale calipers (Scienceware; Pequannock, N.J.) and solving the equation to determine the volume of a spheroid: (a^2×b×Π)/6, where ‘a’ is the width and ‘b’ is the length of the tumor.
Growth delay was calculated by subtracting the average time for control tumors to grow three-fold in volume from the time required for treated tumors to increase in volume by 3-fold from the day of radiation.

For the molecule `O=C1CCC(N2C(=O)c3ccccc3C2=O)C(=O)N1` (stereo not shown) [thalidomide, reference compound], the “EC growth in vitro” value in the test with EC is reported as “do not affect EC growth in vitro”. In addition, the “effect on ICAM-1 expression, other inhibitors of angiogenesis” value (“effect … other inhibitors of angiogenesis” for short) in test [1] is “did not affect ICAM-1 expression”.

In the case of “ANIKLSVEMKLFKRHLKWKIIVKLNDGRELSLD [βpep-8]”, the “cell proliferation activity (control of endothelial cell proliferation)” value in test [2] is recorded as “little cell proliferation activity”.

As to Platelet Factor 4 [PF4], the “bFGF mediated inhibition of leukocyte adhesion to cultured HUVEC” value in the test with HUVEC is on record as “completely abolished”. Also, the “EC proliferation, (3H)-thymidine incorporation” value in the test on EC (expt 1, 1 μg/ml, 10 ng/ml bFGF, medium 28815 ± 1007) stood at 28782 ± 815 cpm; in the test on EC (expt 1, 1 μg/ml, no bFGF, medium 4044 ± 206), 4656 ± 456 cpm; with EC (expt 1, 10 μg/ml, 10 ng/ml bFGF, medium 28815 ± 1007), 23868 ± 402 cpm; in the test with EC (expt 1, 10 μg/ml, no bFGF, medium 4044 ± 206) it was 4066 ± 351 cpm; with EC (expt 1, 100 μg/ml, 10 ng/ml bFGF, medium 28815 ± 1007), 4655 ± 421 cpm; in the test on EC (expt 1, 100 μg/ml, no bFGF, medium 4044 ± 206), 1651 ± 172 cpm. For the same molecule, the “EC proliferation, (3H)-thymidine incorporation” value came to 43524 ± 5318 cpm in the test on EC (setting [3]); 6171 ± 1227 cpm in the test on EC (setting [4]); 8337 ± 704 cpm with EC (setting [5]); 3547 ± 317 cpm in the test with EC (setting [6]); 1654 ± 375 cpm in the test on EC (setting [7]); 947 ± 170 cpm with EC (setting [8]). The “bFGF mediated downregulation of ICAM-1” value in test [1] is reported as “did not result in the loss of ICAM-1 expression”. Further, in test [1] (100 μg/ml alone), the “expression of ICAM-1” value was “enhanced the expression of ICAM-1”. The “re-induction of ICAM-1 expression after bFGF preincubation” value in test [1] (HUVEC pretreated 3 days with bFGF, then 100 μg/ml for 3 days in the presence of bFGF) is reported as “reinduction of ICAM-1”. Besides, the “decreased inflammatory response (TNF-α induced ICAM-1) of angiogenic stimulated EC” value in test [1] (bFGF-pretreated HUVEC, 4 ng/ml TNF-α for the last 16 hours) is “overcome”.

Take “SIQDLNVSMKLFRKQAKWKIIAKLNDGRELSLD [βpep-16]”: the “angiostatic as determined by EC proliferation in vitro” value in the test with EC is “angiostatic”. Further, the “EC proliferation, (3H)-thymidine incorporation” value amounted to 35447 ± 2621 cpm in the test on EC (setting [9]); 15039 ± 2020 cpm in the test on EC (setting [10]); 33663 ± 2572 cpm in the test on EC (setting [11]); 11881 ± 2545 cpm with EC (setting [12]); 7852 ± 875 cpm with EC (setting [13]); 4929 ± 749 cpm in the test on EC (setting [14]). The “EC proliferation, (3H)-thymidine incorporation” value with EC (setting [3]) turned out to be 47727 ± 447 cpm; in the test on EC (setting [4]), 7450 ± 737 cpm; in the test with EC (setting [5]) it was 44919 ± 2081 cpm; with EC (setting [6]) it was 6148 ± 1370 cpm; in the test on EC (setting [7]) it was 27071 ± 3277 cpm; in the test with EC (setting [8]) it was 2669 ± 370 cpm. Moreover, in test [1], the “bFGF mediated downregulation of ICAM-1” value is reported as “complete block of bFGF-mediated downregulation”.

Take “SIQDLNVSMKLFRKQAKWKLIVKLNDGRELSLD [βpep-14]”: the “angiostatic as determined by EC proliferation in vitro” value in the test with EC was “angiostatic”. In addition, the “EC proliferation, (3H)-thymidine incorporation” value in the test on EC (setting [9]) amounted to 28695 ± 1062 cpm; with EC (setting [10]) it was 14184 ± 1775 cpm; with EC (setting [11]) it was 29530 ± 1608 cpm; with EC (setting [12]), 9886 ± 2114 cpm; in the test on EC (setting [13]), 6585 ± 132 cpm; in the test with EC (setting [14]), 3774 ± 299 cpm. The “EC proliferation, (3H)-thymidine incorporation” value worked out at 48443 ± 2700 cpm in the test on EC (setting [3]); 7214 ± 1668 cpm in the test with EC (setting [4]); 52126 ± 1258 cpm with EC (setting [5]); 6074 ± 899 cpm in the test on EC (setting [6]); 7663 ± 715 cpm with EC (setting [7]); 1062 ± 325 cpm in the test on EC (setting [8]). Also, the “bFGF mediated downregulation of ICAM-1” value in test [1] is recorded as “complete block of bFGF-mediated downregulation”.

As for “SIQFLKVSLNLDRKQAKWKIIVKLNDGRELSLD [βpep-24]”, the “cell proliferation activity (control of endothelial cell proliferation)” value in test [2] is listed as “very good at controlling cell proliferation”.

For angiostatin, the complete responses entry with SCK tumors (angiostatin 25 or 50 mg/kg i.p. combined with 10 Gy days 0 and 1) was “nor did it induce any complete responses”. The “delay in tumor growth” value with SCK tumors (angiostatin 25 or 50 mg/kg i.p. days -1, 0, 1 combined with 10 Gy days 0 and 1) is given as “did not result in any significant delay in tumor growth”.

“interferon-γ inducible protein-10 [IP-10]”: the “EC proliferation, (3H)-thymidine incorporation” value in the test with EC (expt 3, 100 μg/ml, 10 ng/ml bFGF, medium 3432 ± 232) turned out to be 725 ± 95 cpm. Moreover, the “effect … other inhibitors of angiogenesis” value in test [1] is “the same results”.

For the molecule thrombospondin-1 [TSP-1], the “EC proliferation, (3H)-thymidine incorporation” value in the test on EC (expt 4, 10 μg/ml, 10 ng/ml bFGF, medium 31954 ± 1220) is 22338 ± 860 cpm; with EC (expt 4, 10 μg/ml, no bFGF, medium 18904 ± 1501) it was 8865 ± 639 cpm; in the test on EC (expt 4, 25 μg/ml, 10 ng/ml bFGF, medium 31954 ± 1220) it was 10267 ± 797 cpm; in the test on EC (expt 4, 25 μg/ml, no bFGF, medium 18904 ± 1501) it was 5565 ± 349 cpm. Further, in test [1], the “effect … other inhibitors of angiogenesis” value was “the same results”.
